Measured values published in publication PMC8316439, “An enzymatic activation of formaldehyde for nucleotide methylation” (Nature Communications, 2021).

Legend:
ThyX [1] = molecular target: T1, ThyX (Thermotoga maritima, UniProt Q9WYT0); test: anaerobic methylation assay with purified ThyX (MS, […]-NMR); stopped-flow of FADH−•dUMP complex; format: biochemical
T1 sequence (Q9WYT0 1-220): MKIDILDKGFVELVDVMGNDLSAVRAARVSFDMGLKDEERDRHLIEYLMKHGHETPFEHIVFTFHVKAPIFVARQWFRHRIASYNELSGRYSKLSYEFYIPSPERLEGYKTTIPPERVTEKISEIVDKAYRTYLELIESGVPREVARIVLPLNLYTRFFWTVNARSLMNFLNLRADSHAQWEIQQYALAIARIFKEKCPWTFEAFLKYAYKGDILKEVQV

ThyX [2] = molecular target: T1, ThyX; test: stopped-flow kinetics of reduced ThyX-dUMP (kon/koff); format: binding

O=c1ccn([C@H]2C[C@H](O)[C@@H](COP(=O)(O)O)O2)c(=O)[nH]1 [dUMP]
anaerobic methylation assay with purified ThyX (MS, 13C-NMR); stopped-flow of FA (ThyX [1]): confirmed the formation of dTMP only in the simultaneous presence of ThyX, NADPH, and CH2O

C=O [formaldehyde]
Kd (ThyX [2]): ~20 mM
